Measurements taken from US12447156B2, “Treating progressive familial intrahepatic cholestasis (PFIC) with IBAT inhibitors” (ALBIREO AB, priority 2020, dated 2025).
Converted amounts (≈) assume the structure as drawn.

Columns and labels:
children with PFIC = assay: Pooled analysis of PEDFIC 1 and PEDFIC 2 (up to 48 weeks): safety; format: in vivo, human
Text: This example describes key outcomes with odevixibat in children with PFIC1 (familial intrahepatic cholestasis 1 [FIC1] deficiency) or PFIC2 ((bile salt export pump [BSEP] deficiency) based on pooled analysis of data from the phase 3 PEDFIC 1 (P1; NCT03566238) and PEDFIC 2 (P2; NCT03659916) studies. This pooled analysis covers up to 48 weeks of odevixibat treatment from P1 and through the planned P2 interim data cut. The following outcomes are described: change in serum bile acids (sBAs), change in pruritus score (measured using the PRUCISION scale; range: 0-4), evaluation of growth and sleep parameters, and safety monitoring. Mean changes in autotaxin (linked to cholestatic pruritus intensity) and plasma 7α-hydroxy-4-cholesten-3-one (p-C4; marker of bile acid synthesis) levels were also summarized.

patients with PFIC = assay: Pooled PEDFIC 1/2 (up to 72 weeks): serum bile acids, pruritus and sleep parameters, correlations, responders; format: in vivo, human
Procedure: Methods: PEDFIC 1 was a randomized, double-blind study in children with PFIC1 or PFIC2; patients received either once-daily placebo, odevixibat 40 μg/kg, or odevixibat 120 μg/k g for 24 weeks. PEDFIC 2 is an ongoing, 72 week extension study in patients with any type of PFIC in which all patients receive odevixibat 120 μg/kg/day. In both PEDFIC 1 and PEDFIC 2, eligible patients had elevated serum bile acids and significant pruritus at screening. Here, patient pruritus and sleep-related data (including tiredness during the day) were included, which were evaluated twice daily by caregivers using the validated PRUCISION scale via an electronic diary. Pruritus and tiredness responses range from 0 to 4, with higher scores indicating worse symptoms; other sleep assessments include questions with Yes/No response s. Correlations between percentage change from baseline in serum bile acids and change from baseline in observer-reported diary data (pruritus, sleep characteristics) were assessed as post hoc analyses and are summarized with Pearson coefficient s (r).

[1] = Solubility of odevixibat in water; format: physicochemical; conditions: pH 7, 37° C.
Text: It is desirable that the use of organic solvents in the preparation of the formulation is avoided. In some embodiments, water is used as the solvent for the preparation of the formulation. […] Because of this low solubility in water, aqueous suspensions of odevixibat can contain larger agglomerates of odevixibat, which may lead to an uneven distribution of the active pharmaceutical ingredient on the cores, i.e. the cores may contain different amounts of odevixibat, which in turn impacts dose uniformity. Accordingly, in some embodiments, the aqueous suspension of odevixibat is homogeneous. In some embodiments, a homogeneous aqueous suspension of odevixibat is sprayed onto the cores.

[2] = tested on: patients with PFIC with prior PEBD surgery; assay: PEDFIC 1/2 post hoc subgroup: patients with prior partial external biliary diversion (PEBD); format: in vivo, human; parameters: key: Y: sBAs reduced ≥70% or levels ≤70 μmol/L at last assesment; N, no; conditions: Patient 10 (prior PEBD, PFIC2; PEDFIC 2 only, 120 μg/kg/d; 35 weeks exposure)
Procedure: One surgical treatment option for patients with PFIC is partial external biliary diversion (PEBD), which can be used to reduce bile acid levels in patients with medically refractory pruritus. However, PEBD is not successful in all patients. […] This post hoc subgroup analysis evaluated the safety and efficacy of odevixibat in patients enrolled in the PEDFIC studies who had PEBD surgery prior to study entry.
In the double-blind PEDFIC 1 study, children with PFIC1 or PFIC2 were randomized to placebo or 40 or 120 μg/kg/day odevixibat for 24 weeks. In PEDFIC 2, an ongoing, open-label extension study, patients from PEDFIC 1 or newly enrolled patients with any PFIC subtype receive odevixibat 120 μg/kg/day. In both PEDFIC 1 and PEDFIC 2, eligible patients had elevated sBAs and significant pruritus at screening. Changes over time in sBA levels and observer-reported pruritus (range: 0-4; higher scores indicate worse symptoms), sleep parameters, and quality of life (QoL; assessed with the Pediatric Quality of Life Inventory [PedsQL]) were evaluated in the subgroup of patients from PEDFIC 1 and/or PEDFIC 2 with a medical history of PEBD surgery performed prior to study enrollment.

CCCCC1(CCCC)CN(c2ccccc2)c2cc(SC)c(OCC(=O)N[C@@H](C(=O)N[C@@H](CC)C(=O)O)c3ccc(O)cc3)cc2S(=O)(=O)N1 [Odevixibat, 1,1-dioxo-3,3-dibutyl-5-phenyl-7-methylthio-8-(N-{(R)-α-[N-((S)-1-carboxypropyl)carbamoyl]-4-hydroxybenzyl}carbamoylmethoxy)-2,3,4,5-tetrahydro-1,2,5-benzothiadiazepine]
patients with drug-related TEAEs (children with PFIC; pooled P1+P2, 32 of 77 patients): 42%
patients who experienced any TEAE (children with PFIC; pooled P1+P2, 61 of 77 patients): 79%
drug-related serious TEAEs (children with PFIC; pooled P1+P2, 77 patients): no drug-related serious TEAEs were reported
patients reporting severe TEAEs (children with PFIC; pooled P1+P2, 77 patients): Eight
patients with TEAEs leading to treatment discontinuation (children with PFIC; pooled P1+P2, 77 patients): Four
incidence of TEAEs (children with PFIC; pooled P1+P2, BSEP subtype 1): 77%
incidence of TEAEs (children with PFIC; pooled P1+P2, BSEP subtype 2): 86%
incidence of TEAEs (children with PFIC; pooled P1+P2, patients with PFIC1, placebo in P1 85%): 80%
incidence of TEAEs (children with PFIC; pooled P1+P2, patients with PFIC2): 80%
tolerability (children with PFIC; pooled P1+P2, treatment for up to 48 weeks): well tolerated
overall incidence of any event of diarrhea (patients with PFIC; pooled PEDFIC 1/2, 18/84 patients): 21%
patients with any TEAE (patients with PFIC; pooled PEDFIC 1/2, 71 of 84 patients, up to 72 weeks): 85%
TEAEs mild or moderate in severity (patients with PFIC; pooled PEDFIC 1/2, 84 patients): 90%
serious drug-related TEAEs or deaths (patients with PFIC; pooled PEDFIC 1/2, 84 patients): No serious drug-related TEAEs or deaths occurred
patients who met criteria for serum bile acid response (patients with PFIC; pooled PEDFIC 1/2, during odevixibat treatment (up to 72 weeks)): approximately 40%
Serum bile acids, Change From Baseline to Weeks 49-72, Mean (patients with PFIC; pooled PEDFIC 1/2, n 32, baseline 246 μmol/L): −53% (9%)
Tiredness score, Change From Baseline to Weeks 49-72, Mean (SE) (patients with PFIC; pooled PEDFIC 1/2, n 34, baseline 2.3): −1.2 (0.2)
Pruritus score, Change From Baseline to Weeks 49-72, Mean (SE) (patients with PFIC; pooled PEDFIC 1/2, n 34, baseline 2.8): −1.5 (0.2)
Number of awakenings, Change From Baseline to Weeks 49-72, Mean (SE) (patients with PFIC; pooled PEDFIC 1/2, n 34, baseline 8): −7 (3)
Days taking medications to induce sleep, Change From Baseline to Weeks 49-72, Mean (SE) (patients with PFIC; pooled PEDFIC 1/2, n 34, baseline 24): −3 (4) %
Days with scratching associated with bleeding, Change From Baseline to Weeks 49-72, Mean (SE) (patients with PFIC; pooled PEDFIC 1/2, n 34, baseline 38): −21 (7) %
Days patient slept with caregiver, Change From Baseline to Weeks 49-72, Mean (SE) (patients with PFIC; pooled PEDFIC 1/2, n 34, baseline 67): −38 (8) %
Days patient needed soothing, Change From Baseline to Weeks 49-72, Mean (SE) (patients with PFIC; pooled PEDFIC 1/2, n 34, baseline 75): −48 (9) %
Days patient needed help falling asleep, Change From Baseline to Weeks 49-72, Mean (SE) (patients with PFIC; pooled PEDFIC 1/2, n 34, baseline 78): −55 (8) %
patients achieving a treatment response (serum bile acid and/or pruritus criteria) (patients with PFIC; pooled PEDFIC 1/2, up to 72 weeks): approximately 60%
tolerability (patients with PFIC; up to 72 weeks of odevixibat treatment): generally well tolerated
solubility [1]: ~30 µg/mL (≈ 40.5 µM)
sBA Responder? [2]: Y
